From patent US9533963B2, “Alkylamidothiazoles, cosmetic or dermatological preparations containing said alkylamidothiazoles, and use thereof to combat or prevent undesired pigmentation of the skin” (BEIERSDORF AG, priority 2011, dated 2017)

The molecules below were run against T1, human tyrosinase (Homo sapiens, UniProt P14679) (assay: Enzyme test: conversion of L-DOPA to L-dopaquinone by a human tyrosinase (MBTH, absorption at 490 nm)). Conditions: concentration 10 μg/ml; inhibition of the tyrosinase activity.
T1 sequence (P14679 19-529): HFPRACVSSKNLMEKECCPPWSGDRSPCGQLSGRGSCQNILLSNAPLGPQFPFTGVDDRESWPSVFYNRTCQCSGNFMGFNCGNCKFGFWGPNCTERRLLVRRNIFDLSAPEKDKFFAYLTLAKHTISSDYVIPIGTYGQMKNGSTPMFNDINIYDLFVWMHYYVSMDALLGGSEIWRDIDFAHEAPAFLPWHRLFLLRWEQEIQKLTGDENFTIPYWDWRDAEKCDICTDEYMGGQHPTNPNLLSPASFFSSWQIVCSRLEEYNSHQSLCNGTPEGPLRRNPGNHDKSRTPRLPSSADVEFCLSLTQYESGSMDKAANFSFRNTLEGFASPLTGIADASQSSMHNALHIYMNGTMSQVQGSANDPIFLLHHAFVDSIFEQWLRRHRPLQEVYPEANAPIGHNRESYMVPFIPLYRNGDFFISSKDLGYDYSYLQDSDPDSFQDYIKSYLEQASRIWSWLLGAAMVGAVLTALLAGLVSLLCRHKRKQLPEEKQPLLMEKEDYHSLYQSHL
Format: biochemical
Procedure: Method Description of the Effectiveness Investigations:
In this literature-known method (Winder, A. J. and Harris, H., New assays for the tyrosine hydroxylase and dopa oxidase activities of tyrosinase. Eur. J. Biochem. (1991), 198, 317-26), the reaction product L-dopaquinone is reacted with MBTH (3-methyl-2-benzothiazoline hydrazone) to give a pink-colored substance, the increase of which is measured over the time by absorption at 490 nm. […] It can be concluded from this that the substances according to the invention are extremely effective pigmentation-inhibiting substances.

`CC(C)Nc1nc(-c2ccc(O)cc2O)cs1` [4-(2-Isopropylamino)thiazol-4-yl)benzene-1,3-diol, reference compound] was tested, and the “Inhibition (% of the control)” value was 91%.

Same assay, conditions: concentration 10 μg/ml; inhibition of the tyrosinase activity; read-out: Inhibition (% of the control)

Compared with `OCc1ccc(Nc2nc(-c3ccc(O)cc3O)cs2)cc1` [4-(2-((4-(Hydroxymethyl)phenyl)amino)thiazol-4-yl)benzene-1,3-diol, reference compound], `O=C(Cc1ccc(CO)cc1)Nc1nc(-c2ccc(O)cc2O)cs1` [N-(4-(2,4-Dihydroxyphenyl)thiazol-2-yl)-2-(4-(hydroxymethyl)phenyl)acetamide] is lower in inhibition at 10 µg/mL: 93% for the first, 88% for the second.

First: Oc1ccc(-c2csc(NC3CCCCC3)n2)c(O)c1 [4-(2-(Cyclohexylamino)thiazol-4-yl)benzene-1,3-diol, reference compound]
Second: O=C(Nc1nc(-c2ccc(O)cc2O)cs1)C1CCCCC1 [N-(4-(2,4-Dihydroxyphenyl)thiazol-2-yl)cyclohexanecarboxamide]
The inhibition at 10 µg/mL of the first is lower: 70% for the first, 92% for the second.

Going from `CCCCCCNc1nc(-c2ccc(O)cc2O)cs1` [4-(2-(Hexylamino)thiazol-4-yl)benzene-1,3-diol, reference compound] to `CCCNc1nc(-c2ccc(O)cc2O)cs1` [4-(2-(Propylamino)thiazol-4-yl)benzene-1,3-diol, reference compound], the inhibition at 10 µg/mL rises from 41% to 88%.

Going from `CC(C)(C)Nc1nc(-c2ccc(O)cc2O)cs1` [4-(2-(tert-Butylamino)thiazol-4-yl)benzene-1,3-diol, reference compound] to `CC(C)(C)C(=O)Nc1nc(-c2ccc(O)cc2O)cs1` [N-(4-(2,4-Dihydroxyphenyl)thiazol-2-yl)pivalamide], the inhibition at 10 µg/mL rises from 62% to 96%.

Going from `O=C(Nc1nc(-c2ccc(O)cc2O)cs1)C1CCC(CO)CC1` (stereo not shown) [N-(4-(2,4-Dihydroxyphenyl)thiazol-2-yl)-4-(hydroxymethyl)cyclohexanecarboxamide] to `CCCC(=O)Nc1nc(-c2ccc(O)cc2O)cs1` [N-(4-(2,4-Dihydroxyphenyl)thiazol-2-yl)butyramide], the inhibition at 10 µg/mL rises from 94% to 95%.

First: CCCCCCC(=O)Nc1nc(-c2ccc(O)cc2O)cs1 [N-(4-(2,4-Dihydroxyphenyl)thiazol-2-yl)heptanamide]
Second: CC(C)C(=O)Nc1nc(-c2ccc(O)cc2O)cs1 [N-(4-(2,4-Dihydroxyphenyl)thiazol-2-yl)isobutyramide]
The inhibition at 10 µg/mL of the first is lower: 66% for the first, 94% for the second.
